Columns and labels:
[1] = target: T1, human RORgt nuclear receptor (RORgT ligand binding domain protein) (Homo sapiens, UniProt P51449); test: ROR-gamma binding assay (Scintillation Proximity Assay, displacement of [3H]-25-hydroxycholesterol); details: EC50, SPA, 15 nM [3H]-25-Hydroxycholesterol, RORgT LBD 12 nM
T1 construct: purchased Proteros Biostructures GmbH
T1 sequence (P51449 with tags, fused parts or gaps): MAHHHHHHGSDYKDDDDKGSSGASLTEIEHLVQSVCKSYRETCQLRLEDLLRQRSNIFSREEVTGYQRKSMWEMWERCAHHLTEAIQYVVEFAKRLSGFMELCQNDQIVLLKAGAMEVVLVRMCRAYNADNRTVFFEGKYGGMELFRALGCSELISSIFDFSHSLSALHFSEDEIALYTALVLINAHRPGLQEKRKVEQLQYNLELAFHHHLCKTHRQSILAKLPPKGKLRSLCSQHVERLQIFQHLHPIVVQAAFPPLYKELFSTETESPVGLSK
Procedure: This assay is used to evaluate the binding affinity of compounds to the ligand-binding pocket of the human RORgt nuclear receptor based on displacement of a radio-ligand. The EC50 values are calculated using a four parameter fit. Compounds binding with high affinity to RORgt will have low EC50 values.
The assay is a Scintillation Proximity Assay (SPA) that involves competition between an unlabeled test compound and tritium-labeled 25-hydroxycholesterol for binding to RORgT ligand binding domain (LBD) protein immobilized on the surface of SPA beads. These beads contain a scintillant that emits light if excited by a radioactive particle, and this light is detected using a scintillation counter. In this assay, tritium-labelled 25-hydroxycholesterol is used as radiotracer.
400 nL of titrated test and reference compounds in DMSO were transferred by the Echo liquid handling system to a 384-well assay plate followed by addition of 5 μL [3H]-25-Hydroxycholesterol (Perkin Elmer) and 35 μL diluted RORgT LBD protein with the following amino acid sequence (HIS-FLG-tag): MAHHHHHHGSDYKDDDDKGSSGASLTEIEHLVQSVCKSYRETCQLRLEDLLRQRSNIFSREEVTGYQRKSMWEMWERCAHHLTEAIQYVVEFAKRLSGFMELCQNDQIVLLKAGAMEVVLVRMCRAYNADNRTVFFEGKYGGMELFRALGCSELISSIFDFSHSLSALHFSEDEIALYTALVLINAHRPGLQEKRKVEQLQYNLELAFHHHLCKTHRQSILAKLPPKGKLRSLCSQHVERLQIFQHLHPIVVQAAFPPLYKELFSTETESPVGLSK (SEQ ID NO: 1) (Purchased from Proteros Biostructures GmbH). After 30 min of preincubation, 40 μL of HIS-TAG PVT SPA beads (Perkin Elmer) were added. The plates were then incubated for minimum 4 hours at room temperature in darkness before measuring the SPA signal using a MicroBeta plate scintillation counter. Final assay conditions were: 50 mM HEPES pH 7.4, 150 mM NaCl, 5 mM MgCl2, 0.1% BSA, 4 μg/well HIS-TAG PVT SPA Beads, 30 ng/well RORgT LBD (equal to a final concentration of 12 nM), 15 nM [^3H]-25-Hydroxycholesterol, 0.5% DMSO and varying concentrations of test compound in a total volume of 80 μL/well. EC50 values were calculated using a 4-parameter non-linear regression curve-fitting model.

[2] = system: IL-17A in Human peripheral mononuclear cells; test: Human PBMC IL-17A assay; type: cell-based; details: 72 h, EC50, antiCD3/antiCD28-coated beads, 3 days, alpha-LISA
Procedure: This assay measures the IL-17A inhibitory potential of test compounds in Human peripheral mononuclear cells.
Peripheral blood mononuclear cells (PBMC) were isolated from human buffy coats using density grade centrifugation (Lymphoprep, Medinor), washed twice in PBS and frozen at −150° C. for later use.
Test compounds were diluted in DMSO and 70 nL of titrated test and reference compounds were transferred by the Echo liquid handling system to a 384-well assay plate in to give a final concentration of 0.1% DMSO in the wells.
The PBMC were thawed, washed and suspended in RPMI-1640 supplemented with pen/strep, glutamax and 10% bovine calf serum. The cells were mixed with antiCD3/antiCD28-coated beads (1 cells pr one bead) (Milteney T-cell expansion kit), and immediately thereafter the cells were pipetted to the plate at 130,000c/well. The plate was incubated for 3 days in humidified air/CO2 (95%/5%) On day 3 the level of IL-17A in the culture supernatant is measured using alpha-LISA kit (Perkin Elmer). Cell viability was measured by adding 6 uL pr well Prestoblue© (Life Technologies) and incubating for 2 hours followed by fluorescent measurement (Ex535/Em615). EC50 values were calculated using a 4-parameter non-linear regression curve-fitting model. Donors may be pre-screened in order to select PBMC with a high secretion of IL-17A.

[3] = system: IL-17A levels in human peripheral blood; test: tissue or blood; type: cell-based; details: 72 h, read-out: Human Whole blood IL-17A (nM)

SMILES	EC50 [1]	EC50 [2]	EC50 [3]
CCOC(=O)N1CCN(Cc2cc(C)cc(Nc3nnc([C@@H](C)O)o3)c2C)C[C@@H]1C [Example 71, ethyl (2S)-4-[[3-[[5-[(1R)-1-hydroxyethyl]-1,3,4-oxadiazol-2-yl]amino]-2,5-dimethyl-phenyl]methyl]-2-methyl-piperazine-1-carboxylate]	0.062 µM	0.223 µM	307 nM
COCc1nnc(Nc2cc(Cl)cc(CN3CCN(C(=O)c4ccccc4)[C@@H](C)C3)c2C)o1 [Example 2, [(2S)-4-[[5-chloro-3-[[5-(methoxymethyl)-1,3,4-oxadiazol-2-yl]amino]-2-methyl-phenyl]methyl]-2-methyl-piperazin-1-yl]-phenyl-methanone]	0.029 µM	0.137 µM	454 nM
CC[C@H](O)c1nnc(Nc2cc(C)cc(CN3CCN(C(=O)OC(C)C)[C@@H](C)C3)c2C)o1 [Example 62, isopropyl (2S)-4-[[3-[[5-[(1S)-1-hydroxypropyl]-1,3,4-oxadiazol-2-yl]amino]-2,5-dimethyl-phenyl]methyl]-2-methyl-piperazine-1-carboxylate]	0.0207 µM	0.0676 µM	103 nM
CCC(F)(F)C(=O)N1CCN(Cc2cc(C)cc(Nc3nnc([C@@H](C)O)o3)c2C)C[C@@H]1C [Example 21, 2,2-difluoro-1-[(2S)-4-[[3-[[5-[(1R)-1-hydroxyethyl]-1,3,4-oxadiazol-2-yl]amino]-2,5-dimethyl-phenyl]methyl]-2-methyl-piperazin-1-yl]butan-1-one]	0.0717 µM	0.18 µM	251 nM
Cc1c(CN2CCN(C(=O)OC(C)C)[C@@H](C)C2)cc(C(F)F)cc1Nc1nnc([C@@H](C)O)o1 [Example 50, isopropyl (2S)-4-[[5-(difluoromethyl)-3-[[5-[(1R)-1-hydroxyethyl]-1,3,4-oxadiazol-2-yl]amino]-2-methyl-phenyl]methyl]-2-methyl-piperazine-1-carboxylate]	0.0316 µM	0.0865 µM	272 nM
Cc1cc(CN2CCN(C(=O)C3CCC(F)(F)C3)[C@@H](C)C2)c(C)c(Nc2nnc([C@@H](C)O)o2)c1 (stereo partly drawn) [Example 25, (3,3-difluorocyclopentyl)-[(2S)-4-[[3-[[5-[(1R)-1-hydroxyethyl]-1,3,4-oxadiazol-2-yl]amino]-2,5-dimethyl-phenyl]methyl]-2-methyl-piperazin-1-yl]methanone]	0.159 µM	0.258 µM	191 nM
Cc1cc(CN2CCN(C(=O)OC(C)C)[C@@H](C)C2)c(C)c(Nc2nnc([C@@H]3CNC(=O)C3)o2)c1 [Example 83, isopropyl (2S)-4-[[2,5-dimethyl-3-[[5-[(3S)-5-oxopyrrolidin-3-yl]-1,3,4-oxadiazol-2-yl]amino]phenyl]methyl]-2-methyl-piperazine-1-carboxylate]	0.067 µM	0.123 µM	240 nM
Cc1cc(CN2CCN(C(=O)OC(C)(C)C)[C@@H](C)C2)c(C)c(Nc2nnc(-c3nonc3C)o2)c1 [Example 34, tert-butyl (2S)-4-[[2,5-dimethyl-3-[[5-(4-methyl-1,2,5-oxadiazol-3-yl)-1,3,4-oxadiazol-2-yl]amino]phenyl]methyl]-2-methyl-piperazine-1-carboxylate]	0.0246 µM	0.0248 µM	83.7 nM
Cc1cc(CN2CCN(C(=O)OC(C)C)[C@@H](C)C2)c(C)c(Nc2nnc([C@@H]3CCOC3)o2)c1 [Example 76, isopropyl (2S)-4-[[2,5-dimethyl-3-[[5-[(3R)-tetrahydrofuran-3-yl]-1,3,4-oxadiazol-2-yl]amino]phenyl]methyl]-2-methyl-piperazine-1-carboxylate]	0.0256 µM	0.0605 µM	112 nM
COCc1nnc(Nc2cc(Cl)cc(CN3CCN(C(=O)C4CCC(F)(F)C4)[C@@H](C)C3)c2C)o1 (stereo partly drawn) [Example 10, [(2S)-4-[[5-chloro-3-[[5-(methoxymethyl)-1,3,4-oxadiazol-2-yl]amino]-2-methyl-phenyl]methyl]-2-methyl-piperazin-1-yl]-(3,3-difluorocyclopentyl)methanone]	0.0454 µM	0.173 µM	296 nM
Cc1c(CN2CCN(C(=O)c3ccccc3)[C@@H](C)C2)cc(Cl)cc1Nc1nnc(CCC#N)o1 [Example 7, 3-[5-[3-[[(3S)-4-benzoyl-3-methyl-piperazin-1-yl]methyl]-5-chloro-2-methyl-anilino]-1,3,4-oxadiazol-2-yl]propanenitrile]	0.033 µM	0.0498 µM	219 nM
Cc1cc(CN2CCN(C(=O)OC(C)C)[C@@H](C)C2)c(C)c(Nc2nnc(C[C@H](C)O)o2)c1 [Example 60, isopropyl (2S)-4-[[3-[[5-[(2S)-2-hydroxypropyl]-1,3,4-oxadiazol-2-yl]amino]-2,5-dimethyl-phenyl]methyl]-2-methyl-piperazine-1-carboxylate]	0.0383 µM	0.106 µM	195 nM
Cc1c(CN2CCN(C(=O)c3ccccc3)[C@@H](C)C2)cc(Cl)cc1Nc1nnc(C2(O)CC2)o1 [Example 6, [(2S)-4-[[5-chloro-3-[[5-(1-hydroxycyclopropyl)-1,3,4-oxadiazol-2-yl]amino]-2-methyl-phenyl]methyl]-2-methyl-piperazin-1-yl]-phenyl-methanone]	0.0317 µM	0.234 µM	504 nM
Cc1cc(CN2CCN(C(=O)C3CCC(F)(F)C3)[C@@H](C)C2)c(C)c(Nc2nnc([C@H]3NCC[C@H]3O)o2)c1 (stereo partly drawn) [Example 79, (3,3-difluorocyclopentyl)-[(2S)-4-[[3-[[5-[(2S,3R)-3-hydroxypyrrolidin-2-yl]-1,3,4-oxadiazol-2-yl]amino]-2,5-dimethyl-phenyl]methyl]-2-methyl-piperazin-1-yl]methanone]	0.274 µM	1.22 µM	3530 nM
Cc1c(CN2CCN(C(=O)OC(C)C)[C@@H](C)C2)cc(Cl)cc1Nc1nnc(C2(CO)CC2)o1 [Example 46, isopropyl (2S)-4-[[5-chloro-3-[[5-[1-(hydroxymethyl)cyclopropyl]-1,3,4-oxadiazol-2-yl]amino]-2-methyl-phenyl]methyl]-2-methyl-piperazine-1-carboxylate]	0.0371 µM	0.103 µM	322 nM
COCc1nnc(Nc2cc(Cl)cc(CN3CCN(C(=O)C4CCCC4)[C@@H](C)C3)c2C)o1 [Example 13, [(2S)-4-[[5-chloro-3-[[5-(methoxymethyl)-1,3,4-oxadiazol-2-yl]amino]-2-methyl-phenyl]methyl]-2-methyl-piperazin-1-yl]-cyclopentyl-methanone]	0.0147 µM	0.0489 µM	112 nM
Cc1c(CN2CCN(C(=O)C3CCC3)[C@@H](C)C2)cc(C(F)F)cc1Nc1nnc([C@H](C)O)o1 [Example 27, cyclobutyl-[(2S)-4-[[5-(difluoromethyl)-3-[[5-[(1S)-1-hydroxyethyl]-1,3,4-oxadiazol-2-yl]amino]-2-methyl-phenyl]methyl]-2-methyl-piperazin-1-yl]methanone]	0.0959 µM	0.425 µM	457 nM
